Experimental data: patent US20210345614A1, “APPLICATION OF 7-CARBOXYBENZO[1,2,3]THIADIAZOLE AMIDES AS PLANT STIMULANTS” (ADAM MICKIEWICZ UNIVERSITY FOUNDATION, priority 2015, published 2021)
Several values for one entry are separate records, joined by “and”; a condition that tells them apart may be missing. Equal entries are not always repeated.

Columns and labels:
[1] = test system: Nicotiana tabacum var. xanthi; assay: Phytotoxicity of BTHWA spray on tobacco under greenhouse conditions; details: 5 to 1000 mg/L tested
Experimental: Experiments were carried out on a model tobacco plant (Nicotiana tabacum var. xanthi) under greenhouse conditions, where the plant was in the three-developed leaves phase. The plants were sprayed (with full coverage of the leaves surface) with a solution of a working fluid having a concentration of active substance (BTHWA) starting from 5 and ending at 1000 mg/L The phytotoxicity of the BTHWA was evaluated.

Tomato plants = assay: Protection against abiotic stress in tomato caused by herbicide (glyphosate); type: in vivo; details: watered twice 20 mg/L; glyphosate 0.005% aqueous solution; 10 days after herbicide application
Experimental: Tomato plants in the phase of first pair of developed true leaves were watered twice with BTHWA at concentration of 20 mg/L, at a weekly intervals. Control tomato plants were treated with water only.

Radish seeds = assay: Germination of radish seeds; type: in vivo; details: seeds in 10 mg/L solution, after 2 days
Experimental: Radish seeds were placed in water-containing solution of BTHWA at a concentration of 10 mg/L or water only (control samples).

[2] = test system: tobacco mosaic virus (TMV); assay: BTHWA effect on the infectivity of tobacco mosaic virus (virus pre-incubated with compound, necrotic spots on tobacco leaves); type: in vivo, tobacco cv. xanthi; details: TMV approx. 3 μg/ml incubated 30 min with BTHWA 40 mg/L 1:1; after 5 days
Experimental: (§1) Purified tobacco mosaic virus (TMV) at a concentration of approx. 3 μg/ml was mixed with N-methyl-N-methoxy-7-carboxybenzo[1,2,3]thiadiazole amide (BTHWA) formulation (concentration 40 mg/L) in a 1:1 volume ratio and incubated for 30 min at room temperature (treated leaves). The control was TMV incubated in water. Both virus suspensions were used to mechanically infect tobacco leaves cv. xanthi. Local necrotic spots (hypersensitivity, local infection) produced on the tobacco leaves were measured.

[3] = test system: Tobacco plants (Nicotiana tabacum) var. xanthi; assay: Protection against abiotic stress in tobacco caused by herbicide (glyphosate); type: in vivo; details: watered twice 20 mg/l; glyphosate 0.005% aqueous solution; 10 days after herbicide application
Experimental: Tobacco plants (Nicotiana tabacum) var. […] stage of 3 developed leaves were watered twice with solution of BTHWA at concentration of 20 mg/l, at a weekly interval. Control […] plants were treated with water only.

[4] = test system: Pseudomonas syringe pv. tomato; assay: Protection of tobacco against bacterial infection of Pseudomonas syringe pv. tomato; type: in vivo, Nicotiana tabacum cv. xanthi
Experimental: Tobacco plants at the 3 developed leaves stage were watered (applied at the roots) twice in weekly intervals with BTHWA solution at a concentration of 20 mg/L. Control tobacco plants were irrigated with water only. One week after the second treatment, a Pseudomonas syringe pv. tomato bacterial suspension, at a concentration of 10^5 CFU/cm^3 was transferred to the leaf by using an insulin syringe (without a needle). The bacterial suspension was prepared from two-day syringe pv. tomato culture on a solid medium. Protection against biotic stress was evaluated based on the amount of bacterial growth in the leaves at the point of introduction followed by the formation of necrotic spots, and this was compared with the control. […] The procedure as described in Example 12 was followed, however, the effectiveness of BTHWA in protecting plants against biotic stress was tested against the bacterial cell concentration raised to approx. 10^6 […].

Brome Mosaic Virus BMV = assay: Protection of barley against Brome Mosaic Virus infection by watering; type: in vivo
Experimental: […] Control barley plants were treated with water only. One week after the second application of BTHWA, in each plant, one young developed leaf was sprinkled with carborundum to obtain small scratches, which helped in the virus infection.

[5] = test system: Pseudomonas syringe pv. tomato; assay: BTHWA effect on the infectivity of bacteria, growth in Mueller-Hinton broth; type: cell-based; details: BTHWA 40 mg/L formulation, after 2 days
Experimental: as §1
The procedure as described in Example 1 was followed, however, the bacterium Pseudomonas syringe pv. tomato was used. The suspensions formed were incubated in a Mueller-Hinton broth nutrition medium. After 2 days, the concentration of bacteria on the treated plates was compared to the control.

Powdery mildew = assay: Protection of tomato against fungal infection of Powdery mildew; type: in vivo, Tomato Lycopersicon esculentum Mill
Experimental: Tomato plants in the phase of first pair of developed true leaves were watered twice with BTHWA at a concentration of 20 mg/L, at a weekly interval. Control tomato plants were treater with water only. One week after the second treatment with BTHWA, Powdery mildew fungi suspension was introduced to the leaf using an insulin syringe (without a needle). The suspension was prepared from a culture in solid medium solid. Protection against biotic stress was evaluated based on comparing the area of the leaves infected by the fungi. […] The procedure as described in Example 18 was followed, however, the plants were sprayed.

Rhynchosporium secalis = assay: Field test on barley, fungal infection by Rhynchosporium secalis; type: in vivo, Hordeum vulgare (spring); details: Example 28: BTHWA 20 mg/L with Trend 90 EC, six foliar applications at 10 days intervals; harvested 13 days after last treatment
Experimental: The test was on a variety of barley Hordeum vulgare (spring). There were six applications of the active substance solution. The study was conducted on fields of about 25 m^2 in quadruplicate for each combination tested.

CON(C)C(=O)c1cccc2nnsc12 [BTHWA, N-methyl-N-methoxy-7-carboxybenzo[1,2,3]thiadiazole amide]
concentration in the working fluid at which phytotoxic effects were observed (yellowing of the leaves, necrosis of leaves, growth inhibition) [1]: above 100 mg/L | lesser negative effect of the herbicide compared to the control (Tomato plants): 30% | increase of the mass of the germ in comparison to control (Radish seeds): 5% | difference in number of necrotic spots between control and treated leaves [2]: 12% | lesser negative effect of the herbicide compared to the control [3]: 26% | protection against the effects of bacterial infection ([4]; 10 mg/L, applied by watering or spraying): completely protecting the treated plants from the effects of bacterial infection | protection against the effects of bacterial infection ([4]; sprayed twice at weekly intervals, 20 mg/L): fully protects the plants against the effects of bacterial infection | bacterial infection and formation of necrotic spots ([4]; watered twice at weekly intervals, 20 mg/L, bacteria 10^5 CFU/cm^3): these effects were not observed | local necrotic spots at elevated bacterial cell concentration ([4]; watering as in Example 12, bacteria approx. 10^6 CFU/cm): no local necrotic spots were observed | biotic stress effects (disease symptoms) compared to control (Brome Mosaic Virus BMV; watered twice at weekly intervals with 70 ml of 20 mg/L, two weeks after BMV infection): showed no presence of biotic stress effects | prevention of biotic stress caused by BMV infection (Brome Mosaic Virus BMV; watered with 10 mg/L): 65% | growth differences between the control medium and the treated medium [5]: < 5% | protection against the effects of fungal infection (Powdery mildew; 10 mg/L, watering and spraying): almost completely securing plants from the effects of fungal infection | protection against the effects of fungal infection (Powdery mildew; sprayed twice, 20 mg/L): fully protecting plants against the effects of fungal infection | fungal infection and formation of infected leaf areas (Powdery mildew; watered twice at a weekly interval, 20 mg/L): fungal infection and formation of infected areas were not observed | % of infection (Rhynchosporium secalis): 10% and 10.63%
